Measurements taken from patent US12577216B2, “Triazine benzoate compound and application thereof” (SHENYANG SINOCHEM AGROCHEMICALS R&D CO., LTD., priority 2020, dated 2026).
Read-outs that look alike come from different tables or passages of the source.

Experiments:
Type in all cases: in vivo
piemarker = assay: Determination of herbicidal activity, post-emergence stem and leaf spray, piemarker; settings: for Herbicidal activity for Piemarker, control effect %: Table 4 parallel comparison; for pest or weed control at 150 g/ha: post-emergence, read-out: control effects on piemarker
Method: (§1) Seeds of broadleaf weeds (zinnia and piemarker) or grassy weeds (green bristlegrass and barnyard grass) were respectively sown in a paper cup having a diameter of 7 cm and containing nutrient soil; after sowing, the seeds were covered with 1 cm of soil; the soil was pressed and watered, and then the seeds were cultivated in a greenhouse according to a conventional method; and stems and leaves were sprayed after 2-3 leaf stage of the weeds.
(§2) After the original medicinal acetone was dissolved, the test requires to use 1‰ of Tween 80 to stand in running water to prepare the solution to be tested with a required concentration. According to the design dose of the test, spray treatment was carried out on a track-type crop sprayer (designed and produced by British Engineer Research Ltd.) (spray pressure is 1.95 kg/cm^2, spray volume is 500 L/hm^2 and track speed is 1.48 km/h). The test was repeated for three times. The test material was treated and then placed in an operation hall. The medicinal liquid was naturally dried in the shade, and then was placed in a greenhouse and managed according to the conventional method. The response of the weeds to the drug was observed and recorded. After treatment, the control effects of the test drug on the weeds were visually inspected regularly, expressed by 0-100%. “0” represents no control effect and “100%” represents complete killing.

zinnia = assay: Determination of herbicidal activity, post-emergence stem and leaf spray, zinnia; settings: for control effects on zinnia: 150 g a.i./hm^2, after emergence, visual 0-100%; for Herbicidal activity for Zinnia, control effect %: Table 3 parallel comparison
Method: as §1, §2

green bristlegrass = assay: Determination of herbicidal activity, post-emergence stem and leaf spray, green bristlegrass; settings: Table 5 parallel comparison
Method: as §1, §2

[1] = 150 g a.i./hm^2, after emergence, visual 0-100%
[2] = 2.34 g a.i./hm^2, after emergence
[3] = 9.375 g a.i./hm^2, after emergence
[4] = 37.5 g a.i./hm^2, after emergence

| SMILES | control effects on piemarker (piemarker; [1]) | Herbicidal activity for Piemarker, control effect % (piemarker; [2]) | Herbicidal activity for Piemarker, control effect % (piemarker; [3]) | control effects on zinnia (zinnia) | Herbicidal activity for Zinnia, control effect % (zinnia; [2]) | Herbicidal activity for Zinnia, control effect % (zinnia; [3]) | pest or weed control at 150 g/ha (piemarker; [1]) | Herbicidal activity for Green Bristlegrass, control effect % (green bristlegrass; [3]) | Herbicidal activity for Green Bristlegrass, control effect % (green bristlegrass; [4]) | pest or weed control at 150 g/ha (piemarker) |
| --- | --- | --- | --- | --- | --- | --- | --- | --- | --- | --- |
| CC(OC(=O)c1cc(-n2c(=O)n(C)c(=S)n(C)c2=O)ccc1Cl)C(=O)OCCCl (racemic) [Compound 138] | 100% | – | – | – | – | – | – | – | – | – |
| CC(OC(=O)c1cc(-n2c(=O)n(C)c(=S)n(C)c2=O)c(F)cc1Cl)C(=O)OCCCl (racemic) [Compound 265] | 100% | 90% | 100% | 100% | – | – | – | – | – | – |
| CC(OC(=O)c1cc(-n2c(=O)n(C)c(=S)n(C)c2=O)c(F)cc1Cl)C(=O)OCCCCl (racemic) [Compound 268] | 100% | – | – | 100% | 85% | 100% | – | – | – | – |
| CC(OC(=O)c1cc(-n2c(=O)n(C)c(=S)n(C)c2=O)ccc1Cl)C(=O)OCC1CC1 (stereo not drawn) [Compound 160] | 100% | – | – | – | – | – | – | – | – | – |
| Cn1c(=S)n(C)c(=O)n(-c2cc(C(=O)OCC(=O)OCCCCl)c(Cl)cc2F)c1=O [Compound 222, 2-chloro-4-fluoro-5-(3,5-dimethyl-2,6-dioxo-4-thio-1,3,5-triazine-1-yl)benzoic acid (3-chloropropoxycarbonyl) methyl ester] | – | – | – | 100% | 100% | 100% | 100% | 60% | 90% | – |
| Cn1c(=S)n(C)c(=O)n(-c2cc(C(=O)OCC(=O)OCC3COC(C)(C)O3)c(Cl)cc2F)c1=O (stereo not drawn) [Compound 247] | 100% | – | – | 100% | 100% | 100% | – | 60% | 90% | – |
| CC(OC(=O)c1cc(-n2c(=O)n(C)c(=S)n(C)c2=O)c(F)cc1Cl)C(=O)OCCF (stereo not drawn) [Compound 264] | 100% | – | – | 100% | 90% | 100% | – | – | – | – |
| C[C@@H](OC(=O)c1cc(-n2c(=O)n(C)c(=S)n(C)c2=O)c(F)cc1Cl)C(=O)OCCCl [Compound 266] | – | – | – | 100% | 85% | 100% | 100% | – | – | – |
| C[C@H](OC(=O)c1cc(-n2c(=O)n(C)c(=S)n(C)c2=O)c(F)cc1Cl)C(=O)OCCCl [Compound 267] | – | 90% | 100% | 100% | 85% | 100% | 100% | – | – | – |
| C[C@@H](OC(=O)c1cc(-n2c(=O)n(C)c(=S)n(C)c2=O)c(F)cc1Cl)C(=O)OCCCCl [Compound 269] | 100% | – | – | 100% | 80% | 95% | – | – | – | – |
| C[C@H](OC(=O)c1cc(-n2c(=O)n(C)c(=S)n(C)c2=O)c(F)cc1Cl)C(=O)OCCCCl [Compound 270] | 100% | 85% | 100% | 100% | 90% | 100% | – | – | – | – |
| CC(OC(=O)c1cc(-n2c(=O)n(C)c(=S)n(C)c2=O)c(F)cc1Cl)C(=O)OCCCCCl (stereo not drawn) [Compound 273] | 100% | 90% | 100% | 100% | – | – | – | – | – | – |
| CC(OC(=O)c1cc(-n2c(=O)n(C)c(=S)n(C)c2=O)c(F)cc1Cl)C(=O)OC/C=C/Cl (stereo not drawn) [Compound 281, (E)-2-chloro-4-fluoro-5-(3,5-dimethyl-2,6-dioxo-4-thio-1,3,5-triazine-1-yl)benzoic acid (1-(3-chloroallyloxycarbonyl))ethyl ester] | – | – | – | 100% | 90% | 100% | – | 60% | 90% | 100% |
| CC(OC(=O)c1cc(-n2c(=O)n(C)c(=S)n(C)c2=O)c(F)cc1Cl)C(=O)OCC=C(Cl)Cl (stereo not drawn) [Compound 283] | 100% | – | – | 100% | 100% | 100% | – | 50% | 85% | – |
| CC(OC(=O)c1cc(-n2c(=O)n(C)c(=S)n(C)c2=O)c(F)cc1Cl)C(=O)OCc1ccccc1 (stereo not drawn) [Compound 289] | 100% | – | – | 100% | – | – | – | – | – | – |
| CC(OC(=O)c1cc(-n2c(=O)n(C)c(=S)n(C)c2=O)c(F)cc1Cl)C(=O)OC/C=C/c1ccccc1 (stereo not drawn) [Compound 290] | 100% | – | – | 100% | – | – | – | – | – | – |
| CC(OC(=O)c1cc(-n2c(=O)n(C)c(=S)n(C)c2=O)c(F)cc1Cl)C(=O)OCC1CCCC1 (stereo not drawn) [Compound 293] | 100% | 85% | 100% | 100% | 90% | 100% | – | – | – | – |
| CC(OC(=O)c1cc(-n2c(=O)n(C)c(=S)n(C)c2=O)c(F)cc1Cl)C(=O)OCC1CO1 (stereo not drawn) [Compound 295] | 100% | – | – | 100% | 90% | 100% | – | – | – | – |
| CC(OC(=O)c1cc(-n2c(=O)n(C)c(=S)n(C)c2=O)c(F)cc1Cl)C(=O)OCC1CCCO1 (stereo not drawn) [Compound 296] | 100% | – | – | 100% | 90% | 100% | – | – | – | – |
| CC(OC(=O)c1cc(-n2c(=O)n(C)c(=S)n(C)c2=O)c(F)cc1Cl)C(=O)OCC1COC(C)(C)O1 (stereo not drawn) [Compound 297] | 100% | 85% | 100% | 100% | 95% | 100% | – | – | – | – |
| CCOC(=O)C(CC)OC(=O)c1cc(-n2c(=O)n(C)c(=S)n(C)c2=O)c(F)cc1Cl (stereo not drawn) [Compound 299] | – | 85% | 100% | 100% | – | – | – | – | – | – |
| CCC(OC(=O)c1cc(-n2c(=O)n(C)c(=S)n(C)c2=O)c(F)cc1Cl)C(=O)OCCF (stereo not drawn) [Compound 300, 2-chloro-4-fluoro-5-(3,5-dimethyl-2,6-dioxo-4-thio-1,3,5-triazine-1-yl)benzoic acid (1-(2-fluoroethoxycarbonyl))propyl ester] | – | – | – | 100% | – | – | 100% | – | – | – |
| CCC(OC(=O)c1cc(-n2c(=O)n(C)c(=S)n(C)c2=O)c(F)cc1Cl)C(=O)OCCCl (stereo not drawn) [Compound 301] | 100% | – | – | 100% | – | – | – | – | – | – |
| CCC(OC(=O)c1cc(-n2c(=O)n(C)c(=S)n(C)c2=O)c(F)cc1Cl)C(=O)OCCCCl (stereo not drawn) [Compound 302] | 100% | – | – | 100% | 90% | 100% | – | – | – | – |
| CCC(OC(=O)c1cc(-n2c(=O)n(C)c(=S)n(C)c2=O)c(F)cc1Cl)C(=O)OCCCCCl (stereo not drawn) [Compound 303] | 100% | – | – | 100% | 85% | 100% | – | – | – | – |
| CCC(OC(=O)c1cc(-n2c(=O)n(C)c(=S)n(C)c2=O)c(F)cc1Cl)C(=O)OCC1CC1 (stereo not drawn) [Compound 304] | 100% | – | – | 100% | 80% | 100% | – | – | – | – |
| CCOC(=O)C(OC(=O)c1cc(-n2c(=O)n(C)c(=S)n(C)c2=O)c(F)cc1Cl)C(C)C (stereo not drawn) [Compound 305] | 100% | – | – | 100% | – | – | – | – | – | – |
| CCOC(=O)C(C)(C)OC(=O)c1cc(-n2c(=O)n(C)c(=S)n(C)c2=O)c(F)cc1Cl [Compound 306, 2-chloro-4-fluoro-5-(3,5-dimethyl-2,6-dioxo-4-thio-1,3,5-triazine-1-yl)benzoic acid (1-methyl-1-ethoxycarbonyl)ethyl ester] | – | – | – | – | – | – | 100% | – | – | – |
